The term ΔTm denotes the change in melting temperature against a reference sample. Usually pIC50 stands for the IC50 on a negative log10 scale, so that one unit is a factor of ten. One may read the pKd as the Kd on a negative log10 scale, so that one unit is a factor of ten.

Results on two compounds are retold here after paper PMC3877016 (PLoS ONE, 2013).

Data set [1] addresses T1, BAZ2B (Homo sapiens, UniProt Q9UIF8).
T1 construct: bromodomains contained within six other proteins (CREBBP, p300, BAZ2B, GCN5, PHIP and SMARC2A); His-tag (N)
Put plainly: Protein thermal denaturation assay. In kind it is binding. As to conditions: 5 µM protein, 100 µM compound. Here is the method:
(§1) 5 µM of purified bromodomain protein was incubated with 5X SYPRO® Orange (Molecular Probes) at a final concentration of 20 mM HEPES pH 7.4, 100 mM NaCl in the presence of 100 µM compound or DMSO (0.2%) in a fast 96 well optical plate (Applied Biosytems). Samples were incubated at room temperature for 30 minutes and ramped from 25°C to 95°C in a ViiA7 real-time PCR machine (Applied Biosystems). The resulting fluorescence data was analyzed and melting temperatures calculated using Protein Thermal Shift™ Software v1.0 (Life Technologies).

In data set [2] the target is T2, BRD2[BD1] (Homo sapiens, UniProt P25440).
T2 construct: we expressed and purified the bromodomains (BD1, BD2) for the BETs expressed in hepatocytes (BRD2, BRD3, BRD4)
Kind of data set: Protein thermal denaturation assay. The data set is classed as binding. Here is the method:
as §1

Data set [3] concerns the target T3, BRD2[BD2] (Homo sapiens, UniProt P25440).
T3 construct: we expressed and purified the bromodomains (BD1, BD2) for the BETs expressed in hepatocytes (BRD2, BRD3, BRD4)
Kind of data set: Protein thermal denaturation assay. The data set is classed as binding. As to the method:
as §1

The target of data set [4] is T4, BRD3[BD1] (Homo sapiens, UniProt Q15059).
T4 construct: we expressed and purified the bromodomains (BD1, BD2) for the BETs expressed in hepatocytes (BRD2, BRD3, BRD4)
Put plainly: Protein thermal denaturation assay. In kind it is binding. To be noted: 5 µM protein, 100 µM compound. As to the method:
as §1

In data set [5] the target is T5, BRD3[BD2] (Homo sapiens, UniProt Q15059).
T5 construct: we expressed and purified the bromodomains (BD1, BD2) for the BETs expressed in hepatocytes (BRD2, BRD3, BRD4)
Kind of data set: Protein thermal denaturation assay. To be noted: 5 µM protein, 100 µM compound. The data set is classed as binding. Here is the method:
as §1

The target of data set [6] is T6, BRD4[BD1] (Homo sapiens, UniProt O60885).
T6 construct: we expressed and purified the bromodomains (BD1, BD2) for the BETs expressed in hepatocytes (BRD2, BRD3, BRD4)
Put plainly: Protein thermal denaturation assay. The data set is classed as binding. As to the method:
as §1

Data set [7] deals with T7, BRD4[BD2] (Homo sapiens, UniProt O60885).
T7 construct: we expressed and purified the bromodomains (BD1, BD2) for the BETs expressed in hepatocytes (BRD2, BRD3, BRD4)
Put plainly: Protein thermal denaturation assay. In kind it is binding. As to the method:
as §1

Data set [8] has as its target T8, CREBBP (Homo sapiens, UniProt Q92793).
T8 construct: bromodomains contained within six other proteins (CREBBP, p300, BAZ2B, GCN5, PHIP and SMARC2A); His-tag (N)
Put plainly: Protein thermal denaturation assay. To be noted: 5 µM protein, 100 µM compound. The data set is classed as binding. As to the method:
as §1

Data set [9] has as its target T9, GCN5 (Homo sapiens, UniProt Q92830).
T9 construct: bromodomains contained within six other proteins (CREBBP, p300, BAZ2B, GCN5, PHIP and SMARC2A); His-tag (N)
Put plainly: Protein thermal denaturation assay. In kind it is binding. To be noted: 5 µM protein, 100 µM compound. As to the method: as §1

Data set [10] has as its target T10, P300 (Homo sapiens, UniProt Q09472).
T10 construct: bromodomains contained within six other proteins (CREBBP, p300, BAZ2B, GCN5, PHIP and SMARC2A); His-tag (N)
Put plainly: Protein thermal denaturation assay. To be noted: 5 µM protein, 100 µM compound. In kind it is binding. As to the method: as §1

The target of data set [11] is T11, PHIP (Homo sapiens, UniProt Q8WWQ0).
T11 construct: bromodomains contained within six other proteins (CREBBP, p300, BAZ2B, GCN5, PHIP and SMARC2A); His-tag (N)
Put plainly: Protein thermal denaturation assay. The data set is classed as binding. To be noted: 5 µM protein, 100 µM compound. As to the method:
as §1

The target of data set [12] is T12, SMARCA2A (Homo sapiens, UniProt P51531).
T12 construct: bromodomains contained within six other proteins (CREBBP, p300, BAZ2B, GCN5, PHIP and SMARC2A); His-tag (N)
Put plainly: Protein thermal denaturation assay. In kind it is binding. As to conditions: 5 µM protein, 100 µM compound. As to the method: as §1

Data set [13] concerns the target BRDT tandem bromodomains [BD1 BD2] (Homo sapiens, UniProt Q58F21). Kind of data set: TR-FRET competition assay, tandem bromodomains. The data set is classed as binding. As to the method:
(§2) For inhibition assays, serially diluted compound was added to these reactions in a 0.2% final concentration of DMSO. Final buffer concentrations were 30 mM HEPES pH 7.4, 30 mM NaCl, 0.3 mM CHAPS, 20 mM PO4 pH 7.0, 320 mM KF, 0.08% BSA). After 2 h incubation at room temperature, the fluorescence by FRET was measured at 665 and 620 nm by a SynergyH4 plate reader (Biotek). IC50 values were determined from a dose response curve.

Data set [14] deals with T2, BRD2[BD1]. Put plainly: Isothermal titration calorimetry. In kind it is binding. To be noted: ITC, 25°C. A general note: In ITC the heat of successive injections is recorded.
Data set [15] deals with T3, BRD2[BD2]. Put plainly: Isothermal titration calorimetry. As to conditions: ITC, 25°C. In kind it is binding.
Data set [16] addresses T6, BRD4[BD1]. Kind of data set: Isothermal titration calorimetry. The data set is classed as binding. To be noted: ITC, 25°C.
Data set [17] has as its target T7, BRD4[BD2]. Put plainly: Isothermal titration calorimetry. In kind it is binding. To be noted: ITC, 25°C.
For data set [18], the target named is BD1 bromodomains of BRDs 2 and 3. Kind of data set: TR-FRET competition assay. The data set is classed as binding, human. To be noted: BD1 of BRDs 2 and 3, text summary citing Table 3. Here is the method:
as §2, with “200 nM N-terminally His-tagged bromodomains or BRD4(BD1BD2) and 25–50 nM biotinylated tetra-acetylated histone H4 peptide (Millipore) were incubated in the presence of Europium Cryptate-labeled streptavidin (Cisbio Cat. #610SAKLB) and XL665-labeled monoclonal anti-His antibody (Cisbio Cat.#61HISXLB) in a white 96 well microtiter plate (Greiner). For” for “For”
(In TR-FRET formats the signal depends on donor and acceptor labels being close together.)

The subject of data set [19] is bromodomains of CREBBP, p300, BAZ2B, GCN5, PHIP and SMARC2A. Put plainly: Protein thermal denaturation assay (text summary). The data set is classed as binding. Here is the method:
as §1

Data set [20] has as its system ApoA-I mRNA in Huh7 cells. Put plainly: Induction of ApoA-I mRNA in Huh7 cells (RT-PCR). The data set is classed as cell-based, human. As to conditions: for Induction of ApoA-I mRNA: 48 h. Here is the method: (§3) Huh7 cells were plated at 23,000/well in a 96 well plate in DMEM +10% FBS before allowing to grow overnight. Cells were treated with compounds for 48 h in 0.1%DMSO with or without 5 µM Actinomycin D. U937 cells were differentiated for 3 days in 60 ng/mL PMA, 32,000 cells/well in 96-well format. Cells were then treated with compound in 0.1%DMSO in RPMI media +10%FBS, and after 1 h, lipopolysaccharide (LPS, Sigma) was added to the cells at 1 µg/mL for 3 hours.
(§4) Cells were harvested by mRNA Catcher PLUS Kit followed by real-time PCR using the RNA UltraSense One-Step qRT-PCR System. ApoA-I, IL-6 and TNFα mRNA levels were measured relative to the endogenous control serpin A1 or cyclophilin in the same sample. Data was acquired using the 7500 Real Time PCR System (Applied Biosystems).

In data set [21] the test system is IL-6 mRNA in U937 cells. Put plainly: Inhibition of IL-6 mRNA in LPS-stimulated U937 cells (RT-PCR). As to conditions: U937 cells differentiated with PMA. The data set is classed as cell-based, human. Here is the method: as §3, §4
Data set [22] concerns BRDs2, 3 and 4 on chromatin in Huh7 cells. Kind of data set: Extraction of soluble BET proteins from chromatin (Western blot). In kind it is cell-based, human. Here is the method:
Soluble proteins were extracted using a buffer containing 0.5% Triton X-100 (10 mM PIPES pH 6.8, 300 mM sucrose, 50 mMNaCl, 3 mM MgCl2, 1 mM EGTA, 2 mM ribonucleoside vanadyl complex) as previously described.
In general terms: Immunoblotting shows a protein as a band on a membrane.

The target of data set [23] is T13, PHIP on chromatin in Huh7 cells (Homo sapiens, UniProt Q8WWQ0).
T13 construct: endogenous in cells; host or cells: Huh7
Kind of data set: Extraction of soluble proteins from chromatin (Western blot). In kind it is cell-based. As to the method: Soluble proteins were extracted using a buffer containing 0.5% Triton X-100 (10 mM PIPES pH 6.8, 300 mM sucrose, 50 mMNaCl, 3 mM MgCl2, 1 mM EGTA, 2 mM ribonucleoside vanadyl complex) as previously described. After loading on a 4–12% NuPAGE gradient gel (Life Technologies), the soluble and chromatin-containing pellet fractions were evaluated by Western blot with the following antibodies and dilutions: BRD2 (Bethyl, A302-583A, 1∶5000); BRD3 (Bethyl A302-368A, 1∶2000); BRD4 (Bethyl A301-985A, 1∶1000); PHIP (Abcam ab86244, 1∶2000), HNF4a (Perseus PPH1415, 1∶1000); NR2F2 (Perseus PPH7147, 1∶1000).

The test system of data set [24] is ApoA-I mRNA in HepG2. As to conditions: cited from earlier work.
Data set [25] has as its system cholesterol efflux capacity. To be noted: monkeys; cited from earlier work.
The subject of data set [26] is ApoA-I and HDL-C levels. Further details: method as in PMID 21255957. As to conditions: statin-treated patients with coronary artery disease; cited from earlier work.

Structures are written as SMILES. pIC50, pKd: −log10 of the molar value. Where only a bound is given, the exact number is not on record here.

T3 sequence (P25440 344-453 limits assumed): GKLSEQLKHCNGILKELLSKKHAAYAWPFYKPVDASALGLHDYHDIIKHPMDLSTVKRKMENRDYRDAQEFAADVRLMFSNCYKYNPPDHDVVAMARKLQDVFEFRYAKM
T1 sequence (Q9UIF8 2060-2164 limits assumed): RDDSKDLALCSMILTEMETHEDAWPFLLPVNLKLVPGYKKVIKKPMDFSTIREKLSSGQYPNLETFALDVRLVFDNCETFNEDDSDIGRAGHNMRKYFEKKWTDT
T2 sequence (P25440 74-180 limits assumed): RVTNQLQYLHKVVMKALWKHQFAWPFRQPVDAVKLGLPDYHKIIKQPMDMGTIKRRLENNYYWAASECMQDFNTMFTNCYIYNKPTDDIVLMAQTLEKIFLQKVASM
T12 sequence (P51531 1378-1506 limits assumed): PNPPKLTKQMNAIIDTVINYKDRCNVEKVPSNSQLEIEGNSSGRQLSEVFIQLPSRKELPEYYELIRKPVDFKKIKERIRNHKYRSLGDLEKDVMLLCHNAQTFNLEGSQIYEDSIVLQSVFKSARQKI
T8 sequence (Q92793 1085-1192 limits assumed): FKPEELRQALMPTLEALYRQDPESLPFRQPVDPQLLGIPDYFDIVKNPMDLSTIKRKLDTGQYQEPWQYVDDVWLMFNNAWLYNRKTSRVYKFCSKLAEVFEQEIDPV
T10 sequence (Q09472 1049-1156 limits assumed): as the sequence (Q92793 1085-1192 limits assumed) above, with N47S, V73I, F93Y, A98S counted along it
T9 sequence (Q92830 728-832 limits assumed): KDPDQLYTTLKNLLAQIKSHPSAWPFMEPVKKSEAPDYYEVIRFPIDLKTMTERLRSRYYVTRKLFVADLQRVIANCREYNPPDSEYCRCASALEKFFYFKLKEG
T4 sequence (Q15059 34-140 limits assumed): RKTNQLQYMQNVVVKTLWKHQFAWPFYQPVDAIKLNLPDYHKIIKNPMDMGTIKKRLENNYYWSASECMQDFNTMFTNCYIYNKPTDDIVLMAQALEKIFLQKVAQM
T5 sequence (Q15059 306-415 limits assumed): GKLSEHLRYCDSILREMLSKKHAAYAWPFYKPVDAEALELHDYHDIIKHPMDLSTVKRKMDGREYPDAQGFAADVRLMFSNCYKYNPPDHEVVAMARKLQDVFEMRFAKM

In the case of `COc1cc(OC)c2c(=O)[nH]c(-c3cc(C)c(OCCO)c(C)c3)nc2c1` [RVX-208, 2-(4-(2-hydroxyethoxy)-3,5-dimethylphenyl)-5,7-dimethoxyquinazolin-4(3H)-one], the ΔTm at 100 µM in [1] came to 0 °C; in data set [2] it was 1.9 °C; in data set [3], 5.1 °C; in data set [4] it was 2.6 °C; in data set [5], 6.8 °C; in data set [6], 3.9 °C. The ΔTm at 100 µM is 7.7 °C in data set [7]; -0.3 °C in data set [8]; 0 °C in [9]; -0.16 °C in data set [10]; 0.19 °C in [11]; 0.4 °C in data set [12]. The negative-log IC50 (pIC50) in data set [13] was 5.84. In addition, the ΔH in [14] is -53.011 kJ/mol; in [15], -17.34 kJ/mol; in data set [16], -71.295 kJ/mol; in [17] it was -26.68 kJ/mol. Moreover, the ΔS entry is “+16.7 cal mol^−1 K^−1” in [15], −34.1 cal mol^−1 K^−1 in [16] and “+8.44 cal mol^−1 K^−1” in [17]. Besides, the pKd in data set [18] is 5.52 to 5.70. In [19], the “Binding to bromodomains of six other proteins” value was “did not bind”. Besides, the “Induction of ApoA-I in presence of Actinomycin D” value in data set [20] (30 µM RVX-208, with 5 µM Actinomycin D) is on record as “inhibited by Actinomycin D”. Besides, the “Induction of ApoA-I mRNA” value in data set [20] and in [24] was “induces ApoA-I mRNA” throughout. The “Suppression of IL-6 mRNA” value in [21] was “selectively suppresses IL-6 mRNA”. The “Duration of release of BET proteins from chromatin” value in data set [22] is listed as “more than 48 h”. For the same compound, the “Release of BRDs2, 3 and 4 from chromatin into soluble fraction” value in [22] is listed as “partially released from chromatin”. Besides, the “Time to release of BET proteins from chromatin” value in data set [22] (time of treatment) is at most 2 h. The “Release of PHIP from chromatin” value in data set [23] is “stays in the insoluble (pellet, P) fraction”. Moreover, in data set [25], the “Systemic capacity to promote cholesterol efflux” value is “enhanced systemic capacity to promote cholesterol efflux”. Besides, the ApoA-I levels result in data set [26] was “increased”. Besides, the HDL-C levels entry in data set [26] is listed as “increased”.
For `Cc1sc2c(c1C)C(c1ccc(Cl)cc1)=N[C@@H](CC(=O)OC(C)(C)C)c1nnc(C)n1-2` [JQ-1, reference compound], the “Thermal denaturation ΔTm” value in data set [1] was −0.83 °C; in data set [8] it was −1.0 °C; in [9], −0.7 °C; in data set [10], −1.4 °C; in data set [11] it was −1.4 °C; in data set [12], 0.4 °C. For the same compound, the “Induction of ApoA-I mRNA” value in data set [20] is “induces ApoA-I mRNA”. Also, the “Suppression of IL-6 mRNA” value in data set [21] was “selectively suppresses IL-6 mRNA”.
